Measurements published in ChEMBL document CHEMBL5465560, “Selectivity Literature for EUbOPEN Chemogenomic Library” (2024).

How the values were obtained:
[1] = target: eIF-2-alpha kinase GCN2 (Homo sapiens) (UniProt Q9P2K8); assay: Selectivity interaction (ActivX KiNativ screen (kinase selectivity in THP-1 cell lysates)) EUB0000639a EIF2AK4; format: subcellular; conditions: lysate, at 0.01 µM
[2] = target: Bromodomain testis-specific protein (Homo sapiens) (UniProt Q58F21); assay: Selectivity interaction (Bromodomain panel (DSF asssay)) EUB0000270b BRDT
[3] = target: T1, Lymphokine-activated killer T-cell-originated protein kinase (Homo sapiens) (UniProt Q96KB5); assay: Selectivity interaction (Kinase panel (literature)) EUB0001199aCl PBK; conditions: at 1 µM
T1 sequence (whole entry): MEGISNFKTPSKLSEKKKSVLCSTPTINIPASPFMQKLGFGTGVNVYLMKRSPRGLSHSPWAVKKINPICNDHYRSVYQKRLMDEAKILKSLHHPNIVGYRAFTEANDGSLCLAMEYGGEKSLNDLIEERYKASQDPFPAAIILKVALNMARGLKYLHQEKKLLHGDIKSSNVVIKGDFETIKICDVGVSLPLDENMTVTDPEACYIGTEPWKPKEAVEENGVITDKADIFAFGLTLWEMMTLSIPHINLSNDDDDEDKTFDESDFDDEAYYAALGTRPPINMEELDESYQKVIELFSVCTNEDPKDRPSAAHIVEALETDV

[4] = target: Mitogen-activated protein kinase 9 (Homo sapiens, UniProt P45984); assay: Selectivity interaction (KinomeScan (DiscoverX)) EUB0000695a MAPK9; conditions: at 100 nM
[5] = target: T2, RNA 5'-monophosphate methyltransferase (Homo sapiens) (UniProt Q7Z5W3); assay: Selectivity interaction (Methyltransferase screen (radiometric assays, panel of 8 PRMTs, 21 protein lysine methyltransferases, 3 DNA methyltransferases, and one RNA methyltransferase)) EUB0000271b BCDIN3D
T2 sequence (whole entry): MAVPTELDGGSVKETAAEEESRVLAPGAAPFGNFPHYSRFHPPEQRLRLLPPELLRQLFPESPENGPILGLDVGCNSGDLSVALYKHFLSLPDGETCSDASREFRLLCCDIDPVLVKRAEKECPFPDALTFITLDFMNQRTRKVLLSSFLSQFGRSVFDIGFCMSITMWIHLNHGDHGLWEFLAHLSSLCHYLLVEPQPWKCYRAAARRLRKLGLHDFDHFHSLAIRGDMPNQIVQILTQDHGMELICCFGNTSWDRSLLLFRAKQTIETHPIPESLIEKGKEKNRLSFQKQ

[6] = target: Serine/threonine-protein kinase 32A (Homo sapiens) (UniProt Q8WU08); assay: Selectivity interaction (KinomeScan (DiscoverX)) EUB0000595a STK32A; conditions: at 10 µM
[7] = target: Cyclin-dependent kinase 9 (Homo sapiens, UniProt P50750); conditions: at 10 µM
[8] = target: Phosphatidylinositol 4,5-bisphosphate 3-kinase catalytic subunit gamma isoform (Homo sapiens) (UniProt P48736); assay: Selectivity interaction (KinomeScan (DiscoverX)) EUB0000229b PIK3CG; conditions: at 10 µM
[9] = target: T3, Serine/threonine-protein kinase PLK4 (Homo sapiens) (UniProt O00444); assay: Selectivity interaction (KinomeScan (DiscoverX)) EUB0000229b PLK4; conditions: at 10 µM
T3 sequence (whole entry): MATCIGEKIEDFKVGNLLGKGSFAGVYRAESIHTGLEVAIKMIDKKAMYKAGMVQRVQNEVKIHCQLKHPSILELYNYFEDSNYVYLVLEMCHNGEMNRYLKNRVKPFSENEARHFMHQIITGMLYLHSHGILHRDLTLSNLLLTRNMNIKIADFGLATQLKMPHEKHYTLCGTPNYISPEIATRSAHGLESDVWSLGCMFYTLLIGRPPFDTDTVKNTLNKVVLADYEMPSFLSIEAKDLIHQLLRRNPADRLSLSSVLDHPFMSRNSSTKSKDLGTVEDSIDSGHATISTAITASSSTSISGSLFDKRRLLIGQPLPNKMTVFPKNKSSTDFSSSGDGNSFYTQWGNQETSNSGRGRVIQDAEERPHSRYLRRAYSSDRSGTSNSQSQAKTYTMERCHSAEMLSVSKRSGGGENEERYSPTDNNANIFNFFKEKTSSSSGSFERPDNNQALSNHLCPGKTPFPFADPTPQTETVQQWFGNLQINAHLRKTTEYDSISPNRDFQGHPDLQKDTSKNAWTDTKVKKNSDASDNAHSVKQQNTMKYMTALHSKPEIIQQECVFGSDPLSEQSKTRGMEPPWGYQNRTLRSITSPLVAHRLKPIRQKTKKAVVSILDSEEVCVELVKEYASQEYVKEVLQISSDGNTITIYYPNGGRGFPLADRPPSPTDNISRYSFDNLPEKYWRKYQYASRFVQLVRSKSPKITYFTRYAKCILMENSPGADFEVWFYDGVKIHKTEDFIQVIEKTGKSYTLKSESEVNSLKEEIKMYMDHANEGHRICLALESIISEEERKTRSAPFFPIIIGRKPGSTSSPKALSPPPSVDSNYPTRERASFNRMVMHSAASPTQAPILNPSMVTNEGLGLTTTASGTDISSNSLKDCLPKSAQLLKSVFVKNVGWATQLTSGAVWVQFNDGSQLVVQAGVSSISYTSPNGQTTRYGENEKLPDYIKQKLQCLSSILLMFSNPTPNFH

[10] = target: Cyclin-dependent kinase 8 (Homo sapiens, UniProt P49336); assay: Selectivity interaction (KinomeScan (DiscoverX)) EUB0000045b CDK8
[11] = target: Death-associated protein kinase 3 (Homo sapiens) (UniProt O43293); assay: Selectivity interaction (KinomeScan (DiscoverX)) EUB0000618a DAPK3; conditions: at 10 µM
[12] = target: Histone-lysine N-methyltransferase ASH1L (Homo sapiens) (UniProt Q9NR48); assay: Selectivity interaction (Methyltransferase screen (Scintillation proximity assays)) EUB0000255b ASH1L
[13] = target: Interferon-induced, double-stranded RNA-activated protein kinase (Homo sapiens) (UniProt P19525); assay: Selectivity interaction (KinomeScan (DiscoverX)) EUB0000666a EIF2AK2; conditions: at 10 µM
[14] = target: T4, Mitogen-activated protein kinase 12 (Homo sapiens) (UniProt P53778); assay: Selectivity interaction (KinomeScan (DiscoverX)) EUB0000666a MAPK12; conditions: at 10 µM
T4 sequence (whole entry): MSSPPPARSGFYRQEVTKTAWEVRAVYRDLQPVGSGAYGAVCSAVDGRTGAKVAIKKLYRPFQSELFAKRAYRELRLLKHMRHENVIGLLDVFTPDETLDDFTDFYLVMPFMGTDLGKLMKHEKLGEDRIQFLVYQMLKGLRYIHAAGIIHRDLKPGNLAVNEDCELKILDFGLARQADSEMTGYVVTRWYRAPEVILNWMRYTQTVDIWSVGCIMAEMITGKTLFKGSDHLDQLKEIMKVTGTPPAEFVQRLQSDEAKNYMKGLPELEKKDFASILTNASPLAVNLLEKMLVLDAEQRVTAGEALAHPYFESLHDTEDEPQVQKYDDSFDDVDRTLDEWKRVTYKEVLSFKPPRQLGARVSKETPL

Cyclin-dependent kinase 8, sequence (P49336 whole entry): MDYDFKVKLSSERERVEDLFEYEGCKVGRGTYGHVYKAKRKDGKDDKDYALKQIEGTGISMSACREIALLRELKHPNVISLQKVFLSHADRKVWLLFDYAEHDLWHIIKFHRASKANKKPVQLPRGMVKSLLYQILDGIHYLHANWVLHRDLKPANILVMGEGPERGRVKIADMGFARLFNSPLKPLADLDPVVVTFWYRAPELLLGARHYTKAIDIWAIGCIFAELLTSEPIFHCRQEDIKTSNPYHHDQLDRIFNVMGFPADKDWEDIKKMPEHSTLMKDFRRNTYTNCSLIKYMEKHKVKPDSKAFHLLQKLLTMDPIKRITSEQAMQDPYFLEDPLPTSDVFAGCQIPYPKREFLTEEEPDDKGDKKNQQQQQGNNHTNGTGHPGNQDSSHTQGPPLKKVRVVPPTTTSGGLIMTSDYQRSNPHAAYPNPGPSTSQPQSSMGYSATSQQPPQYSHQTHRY
Phosphatidylinositol 4,5-bisphosphate 3-kinase catalytic subunit gamma isoform (Homo sapiens), sequence (P48736 whole entry, looked up, canonical isoform): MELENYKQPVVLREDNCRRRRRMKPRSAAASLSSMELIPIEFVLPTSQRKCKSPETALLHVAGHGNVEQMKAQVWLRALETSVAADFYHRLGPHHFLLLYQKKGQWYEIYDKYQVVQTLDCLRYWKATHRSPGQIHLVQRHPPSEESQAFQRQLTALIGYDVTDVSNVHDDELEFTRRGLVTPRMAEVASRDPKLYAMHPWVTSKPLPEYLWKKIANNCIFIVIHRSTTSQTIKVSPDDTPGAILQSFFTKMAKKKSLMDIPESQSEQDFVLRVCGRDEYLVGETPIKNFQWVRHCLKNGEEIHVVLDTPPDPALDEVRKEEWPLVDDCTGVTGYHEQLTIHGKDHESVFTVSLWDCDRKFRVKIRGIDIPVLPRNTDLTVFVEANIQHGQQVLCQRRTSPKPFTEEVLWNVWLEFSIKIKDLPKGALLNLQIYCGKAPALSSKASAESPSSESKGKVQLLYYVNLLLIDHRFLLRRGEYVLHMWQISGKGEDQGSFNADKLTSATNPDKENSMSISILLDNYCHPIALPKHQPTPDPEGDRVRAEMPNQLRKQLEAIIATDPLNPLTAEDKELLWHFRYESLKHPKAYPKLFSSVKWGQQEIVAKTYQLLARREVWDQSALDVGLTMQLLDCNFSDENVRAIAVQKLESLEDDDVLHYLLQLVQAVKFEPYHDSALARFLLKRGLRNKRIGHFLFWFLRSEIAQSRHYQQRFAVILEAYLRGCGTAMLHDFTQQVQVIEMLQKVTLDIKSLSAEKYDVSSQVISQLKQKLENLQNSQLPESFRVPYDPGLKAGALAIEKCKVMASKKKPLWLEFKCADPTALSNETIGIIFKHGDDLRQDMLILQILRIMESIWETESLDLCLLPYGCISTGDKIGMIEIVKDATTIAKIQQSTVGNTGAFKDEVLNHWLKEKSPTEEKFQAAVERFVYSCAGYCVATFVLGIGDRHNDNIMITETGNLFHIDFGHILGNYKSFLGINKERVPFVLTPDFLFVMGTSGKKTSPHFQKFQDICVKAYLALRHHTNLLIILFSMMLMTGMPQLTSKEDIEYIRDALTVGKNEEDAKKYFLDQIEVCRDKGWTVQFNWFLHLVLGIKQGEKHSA
Interferon-induced, double-stranded RNA-activated protein kinase (Homo sapiens), sequence (P19525 whole entry): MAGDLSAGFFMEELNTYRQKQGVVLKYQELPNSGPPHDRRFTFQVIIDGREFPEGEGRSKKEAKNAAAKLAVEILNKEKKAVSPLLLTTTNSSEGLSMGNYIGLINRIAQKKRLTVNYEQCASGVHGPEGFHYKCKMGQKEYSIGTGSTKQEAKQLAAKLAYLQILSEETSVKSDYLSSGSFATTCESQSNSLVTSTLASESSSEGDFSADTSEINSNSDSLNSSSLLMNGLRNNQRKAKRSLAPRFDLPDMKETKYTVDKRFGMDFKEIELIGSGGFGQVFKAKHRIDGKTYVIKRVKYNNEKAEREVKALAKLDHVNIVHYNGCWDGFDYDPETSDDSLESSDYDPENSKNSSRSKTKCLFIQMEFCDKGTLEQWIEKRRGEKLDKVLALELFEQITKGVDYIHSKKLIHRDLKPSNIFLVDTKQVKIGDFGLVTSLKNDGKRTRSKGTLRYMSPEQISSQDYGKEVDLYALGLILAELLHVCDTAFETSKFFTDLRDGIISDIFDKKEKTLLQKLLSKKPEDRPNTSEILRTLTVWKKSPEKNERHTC
Serine/threonine-protein kinase 32A (Homo sapiens), sequence (Q8WU08 whole entry): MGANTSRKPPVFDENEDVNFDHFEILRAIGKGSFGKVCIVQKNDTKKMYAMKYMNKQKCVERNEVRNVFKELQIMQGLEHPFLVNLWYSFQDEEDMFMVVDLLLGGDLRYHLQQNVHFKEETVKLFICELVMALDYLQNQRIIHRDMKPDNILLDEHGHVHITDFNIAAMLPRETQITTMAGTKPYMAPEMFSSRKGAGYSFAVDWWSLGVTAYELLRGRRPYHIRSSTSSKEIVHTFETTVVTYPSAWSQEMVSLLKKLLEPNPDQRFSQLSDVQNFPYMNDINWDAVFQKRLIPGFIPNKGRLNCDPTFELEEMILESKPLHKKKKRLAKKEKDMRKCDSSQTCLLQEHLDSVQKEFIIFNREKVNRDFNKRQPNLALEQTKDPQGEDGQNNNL
eIF-2-alpha kinase GCN2 (Homo sapiens), sequence (Q9P2K8 whole entry): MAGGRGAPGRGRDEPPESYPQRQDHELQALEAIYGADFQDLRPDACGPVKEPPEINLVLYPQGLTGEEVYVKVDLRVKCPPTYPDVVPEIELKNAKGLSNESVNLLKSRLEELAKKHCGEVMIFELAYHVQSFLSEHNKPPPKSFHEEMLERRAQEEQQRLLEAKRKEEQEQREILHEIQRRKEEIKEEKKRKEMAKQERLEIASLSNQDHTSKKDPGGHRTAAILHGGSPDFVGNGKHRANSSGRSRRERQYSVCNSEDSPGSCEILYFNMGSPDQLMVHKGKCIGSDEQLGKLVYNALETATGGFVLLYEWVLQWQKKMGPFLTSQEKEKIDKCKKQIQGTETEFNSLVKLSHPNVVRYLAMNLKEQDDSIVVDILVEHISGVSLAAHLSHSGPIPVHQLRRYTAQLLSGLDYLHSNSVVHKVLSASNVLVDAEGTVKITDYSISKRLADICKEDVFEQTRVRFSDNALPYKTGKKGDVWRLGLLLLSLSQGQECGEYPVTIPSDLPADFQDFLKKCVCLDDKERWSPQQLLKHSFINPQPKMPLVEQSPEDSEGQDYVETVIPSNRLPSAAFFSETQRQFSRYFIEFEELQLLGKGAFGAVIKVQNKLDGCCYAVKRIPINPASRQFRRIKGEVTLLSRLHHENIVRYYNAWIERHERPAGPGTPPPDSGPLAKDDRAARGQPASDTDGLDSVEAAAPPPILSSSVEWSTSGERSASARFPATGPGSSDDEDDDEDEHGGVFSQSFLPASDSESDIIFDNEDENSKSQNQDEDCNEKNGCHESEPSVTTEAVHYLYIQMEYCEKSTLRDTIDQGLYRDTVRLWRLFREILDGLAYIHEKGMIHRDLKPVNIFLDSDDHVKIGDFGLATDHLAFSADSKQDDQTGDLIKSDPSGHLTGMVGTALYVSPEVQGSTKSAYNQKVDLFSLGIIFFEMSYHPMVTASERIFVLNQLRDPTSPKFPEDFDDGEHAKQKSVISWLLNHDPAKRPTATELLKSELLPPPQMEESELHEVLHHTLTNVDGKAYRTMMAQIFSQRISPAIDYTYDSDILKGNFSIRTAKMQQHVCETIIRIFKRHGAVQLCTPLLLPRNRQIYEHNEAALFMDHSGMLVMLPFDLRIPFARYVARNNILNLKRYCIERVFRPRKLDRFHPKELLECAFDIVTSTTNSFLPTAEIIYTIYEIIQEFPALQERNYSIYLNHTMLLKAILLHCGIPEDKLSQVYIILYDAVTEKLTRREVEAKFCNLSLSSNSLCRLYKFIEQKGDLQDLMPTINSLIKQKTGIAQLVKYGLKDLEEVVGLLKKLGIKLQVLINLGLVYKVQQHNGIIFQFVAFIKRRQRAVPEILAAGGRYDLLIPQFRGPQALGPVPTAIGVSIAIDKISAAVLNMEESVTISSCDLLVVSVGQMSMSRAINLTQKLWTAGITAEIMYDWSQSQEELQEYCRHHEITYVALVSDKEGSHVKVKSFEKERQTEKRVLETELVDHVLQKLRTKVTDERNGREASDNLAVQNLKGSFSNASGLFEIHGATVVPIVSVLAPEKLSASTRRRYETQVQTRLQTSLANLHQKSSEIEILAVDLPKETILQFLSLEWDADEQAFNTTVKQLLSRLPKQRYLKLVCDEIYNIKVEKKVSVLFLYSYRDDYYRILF
Death-associated protein kinase 3 (Homo sapiens), sequence (O43293 whole entry, looked up): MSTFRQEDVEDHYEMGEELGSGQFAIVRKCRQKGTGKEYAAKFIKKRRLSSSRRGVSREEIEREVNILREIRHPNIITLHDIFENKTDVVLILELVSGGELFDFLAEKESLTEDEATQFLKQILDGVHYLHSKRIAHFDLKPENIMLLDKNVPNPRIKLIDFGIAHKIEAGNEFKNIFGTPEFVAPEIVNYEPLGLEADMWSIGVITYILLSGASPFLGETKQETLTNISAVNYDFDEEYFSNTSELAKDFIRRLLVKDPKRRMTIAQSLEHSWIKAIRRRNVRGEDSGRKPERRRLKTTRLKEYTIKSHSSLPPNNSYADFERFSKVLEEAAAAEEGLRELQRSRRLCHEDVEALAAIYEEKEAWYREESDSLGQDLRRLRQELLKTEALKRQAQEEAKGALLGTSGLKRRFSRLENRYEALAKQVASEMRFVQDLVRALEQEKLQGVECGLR
Mitogen-activated protein kinase 9, sequence (P45984 whole entry, looked up): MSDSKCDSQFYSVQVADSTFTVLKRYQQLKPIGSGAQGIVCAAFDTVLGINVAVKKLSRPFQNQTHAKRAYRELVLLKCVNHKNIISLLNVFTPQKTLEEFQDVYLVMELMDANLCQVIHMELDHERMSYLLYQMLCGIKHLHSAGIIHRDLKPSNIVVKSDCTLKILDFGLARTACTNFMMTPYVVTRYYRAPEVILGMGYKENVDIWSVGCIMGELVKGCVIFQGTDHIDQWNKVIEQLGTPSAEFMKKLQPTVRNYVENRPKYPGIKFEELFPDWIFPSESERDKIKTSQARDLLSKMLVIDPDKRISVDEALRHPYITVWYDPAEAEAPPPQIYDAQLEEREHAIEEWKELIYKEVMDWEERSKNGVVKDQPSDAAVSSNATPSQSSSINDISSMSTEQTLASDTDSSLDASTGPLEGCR

How did the % of inhibition [1] turn out when CC[C@@H]1[C@H](F)C(=O)N[C@@H]1COc1nccc2cc(C(N)=O)c(OC)cc12 [ZIMLOVISERTIB] was run?
The % of inhibition was 2%.

Cc1cc(CN)cc(C)c1-c1ncn(C)c1-c1cncn1C was tested. Which dTM [2] did it give?
The dTM was -1.8 K.

CN1Cc2nccc(-c3cn(C)nc3-c3ccc(F)cc3)c2C1=O was tested. Which % of inhibition [3] did it give?
The % of inhibition was -3%.

Cc1cc(F)c(C(=O)Nc2cccc(-c3nncn3C(C)C)n2)cc1-n1cnc(C2CC2)c1 was tested. Which % of control [4] did it give?
Its % of control is 78%.

With Cc1cc(C)cc([C@@H]2c3cc(C)ccc3NC(=O)CN2C(=O)c2ccc(Br)s2)c1 as the molecule, how does the % of activity ([5]; at 1 µM) read?
Its % of activity is 100%.

What about the % of activity ([5]; at 10 µM) of the same molecule?
The % of activity was 101%.

For COCC(=O)NC/C=C/c1ccc2ncnc(Nc3ccc(Oc4ccc(C)nc4)c(C)c3)c2c1 [CP-724714], which % of control [6] is on record?
The % of control was 100%.

What about the % of control [7] of the same molecule?
Its % of control is 100%.

For COc1cc(N(C)c2ccnc3ccc(C(F)(F)F)cc23)cc(OC)c1OC, which % binding [8] is on record?
The % binding was 99%.

And the % binding [9]?
Its % binding is 99%.

For C=CC(=O)Nc1cc(-n2c(=O)ccc3cnc4ccc(-c5ccc(NS(C)(=O)=O)cc5)cc4c32)ccc1C, which % of control ([10]; at 1 µM) is on record?
Its % of control is 76%.

What about the % of control ([10]; at 10 µM) of the same molecule?
Its % of control is 62%.

With O[C@H]1CC[C@H](Nc2ncc3nc(Nc4c(F)cc(F)cc4F)n([C@H]4CCOC4)c3n2)CC1 as the molecule, how does the % of control [11] read?
Its % of control is 100%.

Which % activity ([12]; at 1 µM) does the source give for COCCN1CCC(c2cc(CN(C)C(=O)c3cccc(Oc4ccccc4)c3)ccn2)CC1 here?
The % activity was greater than 95%.

And the % activity ([12]; at 10 µM)?
Its % activity is greater than 90%.

Which % of control [13] does the source give for O=C(NOC[C@H](O)CO)c1ccc(F)c(F)c1Nc1ccc(I)cc1F here?
The % of control was 100%.

What about the % of control [14] of the same molecule?
Its % of control is 100%.
